Measured values as given in patent publication US11993599B2, “Therapeutic compounds” (Genentech, Inc., priority 2021, dated 2024).

Key:
BRG1 = molecular target: T1, BRG1 (Homo sapiens, UniProt P51532); experiment: Immunofluorescence assay for BRG1 degradation in SW1573 cells; assay type: cell-based; settings: 20 hours incubation; for DC50: immunofluorescence mean nuclear signal, read-out: BRG1 IF Degradation IC50; for Dmax: SW1573, 20 h, normalized to a known degrader control, read-out: BRG1 IF Degradation Sinf (%)
T1 construct: either BRM primary antibody (Cell signaling Cat #11966) or BRG primary antibody (Abcam, ab 110641); endogenous in cells; host or cells: SW1573
How it was run: (§1)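 Read-out is per-cell mean nuclear BRM or BRG1 immunofluorescence, imaged after 20 h compound exposure of SW1573 cells and normalized to a known degrader control. Concentration-response curves, fit with a floating maximum, yield degradation IC50 and Dmax.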

BRM = BRM (Homo sapiens, UniProt P51531); experiment: Immunofluorescence assay for BRM degradation in SW1573 cells; assay type: cell-based; set-up: treated overnight at 4° C. with either BRM primary antibody (Cell signaling Cat #11966) or BRG primary antibody; endogenous in cells; host or cells: SW1573; settings: 20 hours incubation; for DC50: immunofluorescence mean nuclear signal, read-out: BRM IF Degradation IC50; for BRM IF Degradation Sinf (%): normalized to a known degrader control
How it was run: as §1

BRM, sequence (P51531 whole entry): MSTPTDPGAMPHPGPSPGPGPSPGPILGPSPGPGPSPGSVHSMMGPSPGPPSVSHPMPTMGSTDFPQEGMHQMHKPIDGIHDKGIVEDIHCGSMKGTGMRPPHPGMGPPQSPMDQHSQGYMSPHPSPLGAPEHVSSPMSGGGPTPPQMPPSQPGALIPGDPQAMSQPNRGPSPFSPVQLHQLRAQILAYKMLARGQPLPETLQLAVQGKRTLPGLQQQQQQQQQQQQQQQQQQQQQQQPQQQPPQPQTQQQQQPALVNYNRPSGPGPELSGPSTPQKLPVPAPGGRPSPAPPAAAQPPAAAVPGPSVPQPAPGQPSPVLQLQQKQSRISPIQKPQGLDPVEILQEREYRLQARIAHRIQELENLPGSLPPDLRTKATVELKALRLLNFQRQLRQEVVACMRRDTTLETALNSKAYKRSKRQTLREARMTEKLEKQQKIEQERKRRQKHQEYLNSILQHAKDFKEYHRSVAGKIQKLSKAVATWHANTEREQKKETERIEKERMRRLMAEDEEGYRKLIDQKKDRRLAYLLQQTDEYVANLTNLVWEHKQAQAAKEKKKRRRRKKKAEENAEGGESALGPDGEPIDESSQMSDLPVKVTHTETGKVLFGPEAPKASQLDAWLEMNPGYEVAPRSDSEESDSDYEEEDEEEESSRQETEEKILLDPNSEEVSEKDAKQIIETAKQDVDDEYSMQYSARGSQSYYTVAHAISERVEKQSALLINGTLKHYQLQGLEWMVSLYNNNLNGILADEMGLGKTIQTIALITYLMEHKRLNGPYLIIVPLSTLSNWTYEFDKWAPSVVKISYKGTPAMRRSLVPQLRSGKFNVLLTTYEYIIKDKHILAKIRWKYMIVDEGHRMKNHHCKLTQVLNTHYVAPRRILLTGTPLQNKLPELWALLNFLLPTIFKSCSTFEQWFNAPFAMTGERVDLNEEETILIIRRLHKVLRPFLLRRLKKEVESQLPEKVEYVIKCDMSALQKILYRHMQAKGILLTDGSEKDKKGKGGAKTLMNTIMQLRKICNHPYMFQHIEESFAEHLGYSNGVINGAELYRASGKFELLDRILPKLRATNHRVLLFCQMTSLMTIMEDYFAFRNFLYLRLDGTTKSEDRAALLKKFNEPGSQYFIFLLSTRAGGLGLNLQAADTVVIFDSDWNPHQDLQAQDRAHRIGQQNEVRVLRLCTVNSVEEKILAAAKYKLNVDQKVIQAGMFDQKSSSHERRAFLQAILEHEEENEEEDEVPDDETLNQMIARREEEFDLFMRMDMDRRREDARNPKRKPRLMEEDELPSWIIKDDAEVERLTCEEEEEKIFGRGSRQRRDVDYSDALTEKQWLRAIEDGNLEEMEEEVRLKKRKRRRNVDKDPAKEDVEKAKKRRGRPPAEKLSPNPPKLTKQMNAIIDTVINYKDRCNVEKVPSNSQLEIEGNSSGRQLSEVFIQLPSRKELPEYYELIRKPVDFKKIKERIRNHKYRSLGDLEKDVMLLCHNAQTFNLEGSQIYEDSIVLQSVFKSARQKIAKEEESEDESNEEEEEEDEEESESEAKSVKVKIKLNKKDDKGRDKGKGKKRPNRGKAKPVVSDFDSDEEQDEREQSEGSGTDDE
T1 sequence (P51532 whole entry): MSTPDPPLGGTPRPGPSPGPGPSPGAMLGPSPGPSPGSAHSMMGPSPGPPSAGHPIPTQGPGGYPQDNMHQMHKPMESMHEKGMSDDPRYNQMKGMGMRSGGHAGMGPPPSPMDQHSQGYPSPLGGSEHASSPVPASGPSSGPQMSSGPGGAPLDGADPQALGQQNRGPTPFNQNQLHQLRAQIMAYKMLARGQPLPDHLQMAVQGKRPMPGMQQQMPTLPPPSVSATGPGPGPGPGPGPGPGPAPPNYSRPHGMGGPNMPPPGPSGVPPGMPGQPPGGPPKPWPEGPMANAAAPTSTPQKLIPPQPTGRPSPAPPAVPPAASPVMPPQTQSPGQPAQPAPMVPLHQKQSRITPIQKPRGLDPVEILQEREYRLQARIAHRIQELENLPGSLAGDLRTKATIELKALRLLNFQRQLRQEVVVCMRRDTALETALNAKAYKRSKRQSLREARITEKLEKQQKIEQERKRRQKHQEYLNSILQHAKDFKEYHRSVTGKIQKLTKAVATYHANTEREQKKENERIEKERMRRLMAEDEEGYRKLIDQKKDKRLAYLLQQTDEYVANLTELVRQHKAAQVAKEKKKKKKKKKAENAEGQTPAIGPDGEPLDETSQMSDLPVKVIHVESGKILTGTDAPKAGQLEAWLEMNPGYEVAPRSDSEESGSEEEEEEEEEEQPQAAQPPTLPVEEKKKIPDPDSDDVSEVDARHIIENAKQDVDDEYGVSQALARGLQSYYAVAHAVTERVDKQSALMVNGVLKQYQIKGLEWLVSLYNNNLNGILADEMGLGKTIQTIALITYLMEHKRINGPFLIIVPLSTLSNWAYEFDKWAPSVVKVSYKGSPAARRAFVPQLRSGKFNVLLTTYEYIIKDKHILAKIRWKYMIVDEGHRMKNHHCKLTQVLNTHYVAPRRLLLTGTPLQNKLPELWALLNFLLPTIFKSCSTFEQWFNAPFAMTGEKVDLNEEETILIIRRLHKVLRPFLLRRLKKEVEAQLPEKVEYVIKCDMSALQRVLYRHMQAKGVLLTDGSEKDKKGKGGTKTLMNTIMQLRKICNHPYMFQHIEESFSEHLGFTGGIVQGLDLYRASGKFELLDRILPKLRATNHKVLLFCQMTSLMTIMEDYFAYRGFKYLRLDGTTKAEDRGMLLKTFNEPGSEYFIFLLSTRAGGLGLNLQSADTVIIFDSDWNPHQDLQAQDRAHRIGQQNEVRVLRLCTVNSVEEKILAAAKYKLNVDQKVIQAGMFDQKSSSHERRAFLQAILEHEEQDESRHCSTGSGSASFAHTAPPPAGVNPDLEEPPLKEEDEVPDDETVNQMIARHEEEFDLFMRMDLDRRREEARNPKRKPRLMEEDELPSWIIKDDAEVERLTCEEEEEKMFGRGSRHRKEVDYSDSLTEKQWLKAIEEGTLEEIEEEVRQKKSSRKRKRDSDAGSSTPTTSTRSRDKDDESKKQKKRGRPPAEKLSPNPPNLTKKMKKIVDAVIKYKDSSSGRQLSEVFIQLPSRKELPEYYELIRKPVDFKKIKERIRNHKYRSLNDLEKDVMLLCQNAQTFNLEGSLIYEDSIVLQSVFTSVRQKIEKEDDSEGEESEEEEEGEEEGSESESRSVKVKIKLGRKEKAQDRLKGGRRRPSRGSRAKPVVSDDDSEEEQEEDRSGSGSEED

SMILES | DC50 (BRG1) [nM] | Dmax (BRG1) [%] | DC50 (BRM) [nM] | BRM IF Degradation Sinf (%) (BRM)
Nc1nnc(-c2ccccc2O)cc1N1CC2CCC(C1)N2c1ccnc(C#CCN2CC(N3CCOCC3)C2)c1 [Compound 229, 2-[6-amino-5-[8-[2-[3-(3-morpholinoazetidin-1-yl)prop-1-ynyl]-4-pyridyl]-3,8-diazabicyclo[3.2.1]octan-3-yl]pyridazin-3-yl]phenol] | 10 to 100 | 30 to 70 | 10 to 100 | F (F indicates −71%-−120%)
Nc1nnc(-c2ccccc2O)cc1N1CC2CCC(C1)N2c1ccnc(C#CCN2CCCC(C(F)(F)F)CC2)c1 (centres unmarked) [Compound 209, 2-[6-amino-5-[8-[2-[3-[4-(trifluoromethyl)azepan-1-yl]prop-1-ynyl]-4-pyridyl]-3,8-diazabicyclo[3.2.1]octan-3-yl]pyridazin-3-yl]phenol] | < 10 | 30 to 70 | < 10 | F (F indicates −71%-−120%)
Nc1nnc(-c2ccccc2O)cc1N1CC2CCC(C1)N2c1ccnc(C#CCN2C3COCC2CC(F)C3)c1 (centres unmarked) [Compound 144, 2-[6-amino-5-[8-[2-[3-(7-fluoro-3-oxa-9-azabicyclo[3.3.1]nonan-9-yl)prop-1-ynyl]-4-pyridyl]-3,8-diazabicyclo[3.2.1]octan-3-yl]pyridazin-3-yl]phenol] | 10 to 100 | 0 to 30 | > 100 | E (E indicates −30%-−70%)
Nc1nnc(-c2ccccc2O)cc1N1CC2CCC(C1)N2c1ccnc(C#CCN2CCCCC(F)(F)C2)c1 [Compound 181, 2-[6-amino-5-[8-[2-[3-(3,3-difluoroazepan-1-yl)prop-1-ynyl]-4-pyridyl]-3,8-diazabicyclo[3.2.1]octan-3-yl]pyridazin-3-yl]phenol] | 10 to 100 | 30 to 70 | 10 to 100 | F (F indicates −71%-−120%)
Nc1nnc(-c2ccccc2O)cc1N1CC2CCC(C1)N2c1ccnc(C#CCN2CCC[C@]23CCNC3)c1 [Compound 165, 2-[6-amino-5-[8-[2-[3-[(5R)-1,7-diazaspiro[4.4]nonan-1-yl]prop-1-ynyl]-4-pyridyl]-3,8-diazabicyclo[3.2.1]octan-3-yl]pyridazin-3-yl]phenol] | > 100 | – | > 100 | E (E indicates −30%-−70%)
Nc1nnc(-c2ccccc2O)cc1N1CC2CCC(C1)N2c1ccnc(C#CCN2CC3(CCCOC3)C2)c1 [Compound 175, 2-[6-amino-5-[8-[2-[3-(6-oxa-2-azaspiro[3.5]nonan-2-yl)prop-1-ynyl]-4-pyridyl]-3,8-diazabicyclo[3.2.1]octan-3-yl]pyridazin-3-yl]phenol] | < 10 | 30 to 70 | < 10 | E (E indicates −30%-−70%)
CNC(=O)[C@@H]1CCCN1CC#Cc1cc(N2C3CCC2CN(c2cc(-c4ccccc4O)nnc2N)C3)ccn1 [Compound 163, (2S)-1-[3-[4-[3-[3-amino-6-(2-hydroxyphenyl)pyridazin-4-yl]-3,8-diazabicyclo[3.2.1]octan-8-yl]-2-pyridyl]prop-2-ynyl]-N-methyl-pyrrolidine-2-carboxamide] | > 100 | 30 to 70 | 10 to 100 | E (E indicates −30%-−70%)
Nc1nnc(-c2ccccc2O)cc1N1CC2CCC(C1)N2c1ccnc(C#CCN2CC(CO)(c3ccccc3)C2)c1 [Compound 179, 2-[6-amino-5-[8-[2-[3-[3-(hydroxymethyl)-3-phenyl-azetidin-1-yl]prop-1-ynyl]-4-pyridyl]-3,8-diazabicyclo[3.2.1]octan-3-yl]pyridazin-3-yl]phenol] | 10 to 100 | 30 to 70 | 10 to 100 | F (F indicates −71%-−120%)
CC1(C)CCN1CC#Cc1cc(N2C3CCC2CN(c2cc(-c4ccccc4O)nnc2N)C3)ccn1 [Compound 187, 2-[6-amino-5-[8-[2-[3-(2,2-dimethylazetidin-1-yl)prop-1-ynyl]-4-pyridyl]-3,8-diazabicyclo[3.2.1]octan-3-yl]pyridazin-3-yl]phenol] | < 10 | 30 to 70 | < 10 | E (E indicates −30%-−70%)
